EC50 and inhibition data for 17 compounds are collected here from patent US12522606B2, “Modified pyrrolo- and pyrazolo-pyrimidines for prostate cancer therapy” (University of Washington, priority 2020, dated 2026).

Assay [1] deals with LNCaP95. The assay is described as follows: MTT proliferation assay, LNCaP95. It is filed as cell-based. Particulars: Homo sapiens, LNCaP-95; for EC50: Table 1, LNCaP95 (AR+ PCa), unit inferred; for inhibition at 10 µM: read-out: MTT % inhib @ 10 μM LNCaP95. The procedure: Anti-tumor activity was determined by screening a series of compounds against the castrate-resistant, androgen-receptor-positive, prostate cancer cell line LNCaP95. […] Inhibition of proliferation was determined based on the level of LNCaP95 cell growth suppression using an MTT assay (NAD(P)H-dependent cellular oxidoreductase enzymatic activities)) read at 72 and 96 hours after addition of the compounds. […] Each cell line was be tested in quadruplicate.
On the technique in general: Tetrazolium dyes change colour on reduction, which living cells bring about.

For assay [2], the system named is PC3. The assay is described as follows: MTT proliferation assay, PC3. Particulars: Homo sapiens; for inhibition at 10 µM: PC-3, read-out: MTT % inhib @ 10 μM PC3; for EC50: read-out: EC50 PC3.

Broadly, the EC50 is the concentration at which the effect is half-maximal. Consider `COCCOc1ncnc2c1c(-c1ccc3ccccc3c1)cn2CC(C)(C)O` [Example 7, 1-(4-(2-methoxyethoxy)-5-(naphthalen-2-yl)-7H-pyrrolo[2,3-d]pyrimidin-7-yl)-2-methylpropan-2-ol], for which, in assay [1], the EC50 was 12 µM and the inhibition at 10 µM was determined as 23.9%. In assay [2], the inhibition at 10 µM is -36.2% and the concentration for a half-maximal effect (EC50) is greater than 20 µM.

On to `C#CCCC1(CCOC(=O)NCCNc2ncnc3c2c(-c2ccc4cc(OCC)ccc4c2)cn3CC(C)(C)O)N=N1` [Example 10, 2-(3-(but-3-ynyl)-3H-diazirin-3-yl)ethyl 2-(5-(6-ethoxynaphthalen-2-yl)-7-(2-hydroxy-2-methylpropyl)-7H-pyrrolo[2,3-d]pyrimidin-4-ylamino)ethylcarbamate], for which the figures for the concentration giving a half-maximal response (EC50) in assay [1] and in assay [2] were 2 µM and greater than 20 µM, respectively.

Consider `CNc1ncnc2c1c(-c1cccc(C(C)C)c1)nn2CC(C)(C)O` [Example 16, 1-(3-(3-isopropylphenyl)-4-(methylamino)-1H-pyrazolo[3,4-d]pyrimidin-1-yl)-2-methylpropan-2-ol], for which the values for the EC50 in assay [1] and in assay [2] were greater than 15 µM and greater than 20 µM, respectively. The inhibition at 10 µM was 11.3% in assay [1] and -10.5% in assay [2].

On to `CC(C)(O)Cn1cc(-c2ccc3cc(OC4CC4)ccc3c2)c2c(NC3CC3)ncnc21` [Example 17, 1-(5-(6-cyclopropoxynaphthalen-2-yl)-4-(cyclopropylamino)-7H-pyrrolo[2,3-d]pyrimidin-7-yl)-2-methylpropan-2-ol], for which the EC50 in assay [1] is 2.5 µM; in assay [2], 10 µM.

Turning to `CNc1ncnc2c1c(-c1cccc(-c3ccccc3)c1)nn2CC(C)(C)O` [Example 19, 1-(3-(biphenyl-3-yl)-4-(methylamino)-1H-pyrazolo[3,4-d]pyrimidin-1-yl)-2-methylpropan-2-ol], in assay [1], the EC50 was determined as 5 µM and the inhibition at 10 µM amounted to 21.3%. In addition, in assay [2], the inhibition at 10 µM is 4.4% and the EC50 was greater than 20 µM.

For the compound `CNc1ncnc2c1c(-c1ccc(-c3ccccc3)cc1F)nn2CC(C)(C)O` [Example 20, 1-(3-(3-fluorobiphenyl-4-yl)-4-(methylamino)-1H-pyrazolo[3,4-d]pyrimidin-1-yl)-2-methylpropan-2-ol], the EC50 in assay [1] and in assay [2] was greater than 20 µM in each case. In addition, the inhibition at 10 µM is 16.5% in assay [1] and 8.3% in assay [2].

On to `CNc1ncnc2c1c(-c1cccc(C(C)C)c1)cn2CC(C)(C)OC` [Example 21, 5-(3-isopropylphenyl)-7-(2-methoxy-2-methylpropyl)-N-methyl-7H-pyrrolo[2,3-d]pyrimidin-4-amine], for which, in assay [1], the 50% effective concentration (EC50) was found to be 7 µM and the inhibition at 10 µM was -2.7%. In assay [2], the inhibition at 10 µM was -5.4% and the EC50 was greater than 20 µM.

On to `CCOc1ccc2cc(-c3cn(CC(C)(C)O)c4ncnc(NCCN)c34)ccc2c1` [Example 23, 1-(4-(2-aminoethylamino)-5-(6-ethoxynaphthalen-2-yl)-7H-pyrrolo[2,3-d]pyrimidin-7-yl)-2-methylpropan-2-ol], for which, in assay [1], the EC50 is greater than 10 µM and the inhibition at 10 µM was found to be 22.9%. Besides, in assay [2], the inhibition at 10 µM stood at 27.2% and the concentration for a half-maximal effect (EC50) is greater than 20 µM.

Take `CC(C)(O)Cn1cc(-c2ccc3cc(OC4CC4)ccc3c2)c2c(NCCN)ncnc21` [Example 24, 1-(4-(2-aminoethylamino)-5-(6-cyclopropoxynaphthalen-2-yl)-7H-pyrrolo[2,3-d]pyrimidin-7-yl)-2-methylpropan-2-ol]: in assay [1], the EC50 is greater than 10 µM and the inhibition at 10 µM was found to be 35.1%. Further, in assay [2], the inhibition at 10 µM came out at 6.7% and the 50% effective concentration (EC50) was greater than 20 µM.

Take `CCOc1ccc2cc(-c3cn(CC(C)(C)O)c4ncnc(NCCO)c34)ccc2c1` [Example 25, 1-(5-(6-ethoxynaphthalen-2-yl)-4-(2-hydroxyethylamino)-7H-pyrrolo[2,3-d]pyrimidin-7-yl)-2-methylpropan-2-ol]: in assay [1], the EC50 was 5 µM and the inhibition at 10 µM was 34.6%. Also, in assay [2], the inhibition at 10 µM worked out at 10.3% and the EC50 was greater than 20 µM.

For `CC(C)(O)Cn1cc(-c2ccc3cc(OC4CC4)ccc3c2)c2c(NCCO)ncnc21` [Example 26, 1-(5-(6-cyclopropoxynaphthalen-2-yl)-4-(2-hydroxyethylamino)-7H-pyrrolo[2,3-d]pyrimidin-7-yl)-2-methylpropan-2-ol], in assay [1], the 50% effective concentration (EC50) came to 5 µM and the inhibition at 10 µM is 40.6%. In assay [2], the inhibition at 10 µM was determined as 9.2% and the half-maximal effective concentration (EC50) is greater than 20 µM.

Turning to `CC(C)(O)Cn1cc(-c2ccc3cc(OC4CC4)ccc3c2)c2c(NCCOCCN)ncnc21` [Example 27, 1-(4-(2-(2-aminoethoxy)ethylamino)-5-(6-cyclopropoxynaphthalen-2-yl)-7H-pyrrolo[2,3-d]pyrimidin-7-yl)-2-methylpropan-2-ol], in assay [1], the concentration giving a half-maximal response (EC50) was greater than 10 µM and the inhibition at 10 µM was 8.6%. For the same compound, in assay [2], the inhibition at 10 µM is -5.2% and the EC50 was greater than 20 µM.

Take `CC(C)(O)Cn1cc(-c2ccc3cc(OC4CC4)ccc3c2)c2c(NCCOCCNC(=O)OC3CC/C=C/CCC3)ncnc21` (stereo not drawn) [Example 29, trans-cyclooct-4-enyl 2-(2-(5-(6-cyclopropoxynaphthalen-2-yl)-7-(2-hydroxy-2-methylpropyl)-7H-pyrrolo[2,3-d]pyrimidin-4-ylamino)ethoxy)ethylcarbamate]: in assay [1], the EC50 stood at 5 µM and the inhibition at 10 µM came to 33.7%. Moreover, in assay [2], the inhibition at 10 µM was -31% and the concentration giving a half-maximal response (EC50) was greater than 20 µM.

As for `CC(C)(O)Cn1cc(-c2ccc(-c3ccccc3)cc2)c2c(NCCO)ncnc21` [Example 30, 1-(5-(biphenyl-4-yl)-4-(2-hydroxyethylamino)-7H-pyrrolo[2,3d]pyrimidin-7-yl)-2-methylpropan-2-ol], in assay [1], it took 4 µM to reach a half-maximal effect (EC50) and the inhibition at 10 µM was determined as 37.8%. In addition, in assay [2], the inhibition at 10 µM was -18.1% and the concentration for a half-maximal effect (EC50) was greater than 20 µM.

Turning to `CCc1ccc(-c2ccc(-c3cn(CC(C)(C)OC)c4ncnc(NC)c34)cc2)cc1` [Example 34, 5-(4′-ethylbiphenyl-4-yl)-7-(2-methoxy-2-methylpropyl)-N-methyl-7H-pyrrolo[2,3-d]pyrimidin-4-amine], the EC50 is 6 µM in assay [1] and greater than 20 µM in assay [2]. The figures for the inhibition at 10 µM in assay [1] and in assay [2] were 29.7% and 9.1%, respectively.

`CCOCCNc1ncnc2c1c(-c1ccc3cc(OC4CC4)ccc3c1)cn2CC(C)(C)O` [Example 35, 1-(5-(6-cyclopropoxynaphthalen-2-yl)-4-(2-ethoxyethylamino)-7H-pyrrolo[2,3-d]pyrimidin-7-yl)-2-methylpropan-2-ol]: in assay [1], the 50% effective concentration (EC50) amounted to 4 µM and the inhibition at 10 µM worked out at 27.1%. In assay [2], the inhibition at 10 µM came out at 16.5% and the half-maximal effective concentration (EC50) is greater than 20 µM.

`CCOCCNc1ncnc2c1c(-c1ccc3cc(OC(C)C)ccc3c1)cn2CC(C)(C)O` [Example 36, 1-(4-(2-ethoxyethylamino)-5-(6-isopropoxynaphthalen-2-yl)-7H-pyrrolo[2,3-d]pyrimidin-7-yl)-2-methylpropan-2-ol]: the results for the EC50 in assay [1] and in assay [2] were 8 µM and greater than 20 µM, respectively. Moreover, the inhibition at 10 µM in assay [1] was determined as 22%; in assay [2], 15.7%.
